Assay results reported in US20230141965A1, “TREATMENT OF INFECTIOUS DISEASES” (Durect Corporation, priority 2020, published 2023).

Experiments:
[1] = system: C57BL/6J mice; experiment: Acute organ injury in mice challenged with lipopolysaccharide (LPS); format: in vivo; conditions: for health of kidney, lung, and liver tissues (sections stained with hematoxylin and eosin, light microscope): C57BL/6J mice, 50 mg/kg i.p. two hours before i.v. LPS 5 mg/kg, tissues collected at day 3, FIG. 1
Description: C57BL/6J mice, 21 week old, received an i.p. injection of 25HC3S sodium salt (50 mg/kg) or vehicle. Two hours later, mice were challenged with an intravenous injection of lipopolysaccharide (LPS) at 5 mg/kg. For vehicle-treated mice, the tissues, liver, lung, and kidney, were collected right before when animals met all criteria to be sacrificed. For mice treated with 25HC3S sodium salt, tissues were collected at the day 3, when 80% of vehicle-treated mice died. The tissue sections were stained with hematoxylin and eosin, examined under light microscope with magnification x 100.

[2] = system: mice; experiment: Acute organ injury in mice given acetaminophen (APAP) injection; format: in vivo; conditions: for kidney, lung, and liver tissues: mice, 25 mg/kg with APAP injection (600 mg/kg APAP for 24hr), FIG. 2
Description: Normal: normal mice without treatment; Control: mice with 10% glucose and acetaminophen (APAP) injection (600 mg/kg APAP for 24hr); PG: mice with vehicle and APAP injection (600 mg/kg APAP for 24hr); PG+25HC3S: mice with 25HC3S (25 mg/kg) and APAP injection.

| Compound | health of kidney, lung, and liver tissues (sections stained with hematoxylin and eosin, light microscope) [1] | kidney, lung, and liver tissues [2] | health of kidney, lung, and liver tissues (sections stained with hematoxylin and eosin, light microscope) ([1]; listed as 25HCS) | protection of mice from lipopolysaccharide (LPS) ([1]; FIG. 1 legend, LPS 5 mg/kg i.v.) | protection of mice from acetaminophen ([2]; FIG. 2 legend, 600 mg/kg APAP) |
| --- | --- | --- | --- | --- | --- |
| C[C@H](CCCC(C)(C)O)[C@H]1CC[C@H]2[C@@H]3CC=C4CC(OS(=O)(=O)[O-])CC[C@]4(C)[C@H]3CC[C@]12C.[Na+] (stereo partly drawn) [25HC3S sodium salt, 5-cholesten-3, 25-diol, 3-sulfate] | improved the health of kidney, lung, and liver tissues | improved kidney, lung, and liver tissues | – | – | – |
| C[C@H](CCCC(C)(C)O)[C@H]1CC[C@H]2[C@@H]3CC=C4C[C@@H](OS(=O)(=O)[O-])CC[C@]4(C)[C@H]3CC[C@]12C.[Na+] [25HC3S, 5-cholesten-3, 25-diol, 3-sulfate] | – | improved kidney, lung, and liver tissues | improved kidney, lung, and liver tissues | protected mice from lipopolysaccharide (LPS) | protected mice from acetaminophen |
